# Assay results: US6300350A, “Treatment of emphysema using RARy selective retinoid agonists” (priority 2000, dated 2001)
# Experiments:
# experimental emphysema = assay: Alveolar repair in rat experimental emphysema, oral dosing; type: in vivo, rats; settings: 1 mg/kg/PO daily for two weeks
# Experimental: (§1) Three (3) weeks post injury animals were treated with vehicle (Capmul solution) or retinoids prepared in Capmul and dosed orally at 1, 3, and 10 mg/kg body weight. Animals were treated for 14 days prior to termination of study.
# Dosage was at 1 mg/kg/PO daily for two weeks.
# RAR subtypes = settings: cited from earlier work
# tropoelastin gene = assay: RAR transactivation of steady state tropoelastin gene in normal human lung fibroblasts (CCD-16Lu); type: cell-based
# Experimental: Transactivation of the tropoelastin gene in normal human lung fibroblasts (CCD-16Lu) was performed as described below. Cells were grown to confluence at which time fresh media +/- ATRA or selective retiniod was added to the basal culture. ATRA and/or selective retiniods were used at a concentration of 1×10^-7 M. The cell layer was lysed using a guanidinium-based buffer (TRIZOL/Sigma) for RNA extraction and analysis. Amplification of tropoelastin and GAPDH RNA was performed by standard quantitative RT-PCR (TAQMAN, Perken/Elmer) using appropriate selective primers. Tropo-elastin gene expression was normalized to the expression of standard house-keeping gene (GAPDH).
# Samples were run in triplicate.
# alveolar septation = settings: postnatal administration; newborn rats; listed as ATRA; cited from earlier work
# [1] = Plasma triglyceride levels in rats; type: in vivo; settings: plasma, 1 mg/kg/PO daily for two weeks
# Experimental: as §1, with “Experimental emphysema was induced in rats as described in Example 2. Three” for “Three”, “study. Lung harvest and blood collection was performed as described in Example 2.” for “study.”
# Quantitation of triglycerides contained in rat plasma was performed after using established procedures in a contact clinical laboratory facility. Briefly, plasma triglycerides were converted to dihdroxyacetone and H2 O2, by sequential treatment of plasma with lipase and glycerokinase according directions described by manufacturer of triglycerides/GPO kit (Boehringer Mannheim #1488872). H2 02 was quantitated calorimetrically in a Hitachi 911 Chemistry Analyzer. In rats normal triglyceride levels are 75-175 mg/dl.
# Dosage was at 1 mg/kg/PO daily for two weeks. […] Therefore, it appears that RARα selective activity is linked to elevated triglyceride levels.
# [2] = system: elastase-induced emphysema; assay: Alveolar repair in rat model of elastase-induced emphysema, intraperitoneal; type: in vivo, male Sprague Dawley rats; set-up: Alveolar Area: unit not given here
# Experimental: Animals were divided into treatment groups of approximately eight. […] Three weeks post injury ATRA or a RAR selective agonist was dissolved in DMSO (20 mg/ml) and stored at -20 C. Fresh working stocks were prepared fresh daily by dilution in corn oil to a final concentration of 2 mg/ml. […] Control groups were challenged with elastase and 21 days later treated with Vehicle (DMSO/PBS) for 14 days. Animals were sacrificed 24 hours after the last dose of by exsanguination under deep anesthesia. Blood was collected at time of exanguination for analysis of changes in blood chemistry from respective treatments. The lungs were inflated with 10% neutral buffered formalin by intratracheal instillation at a constant rate (1 ml/gram body mass/min). The lung was excised and immersed in fixative for 24 hours prior to processing. Standard methods were used to prepare 5 um paraffin sections. Sections were stained with Hematoxylin and Eosin (H%E). Computerized Morphometric analysis was performed to determine the average alveolar size and alveolar number.
# emphysema = settings: animal models of emphysema; cited from earlier work
# RXR receptors = settings: cited from earlier work
structure (smiles),measurement,setting,value
"CC1=C(/C=C/C(C)=C/C=C/C(C)=C/C(=O)O)C(C)(C)CCC1 [RAR Agonist 4, All-trans retinoic acid]",% Repair,experimental emphysema,37.6%
same,binding to the three RAR subtypes (in words),RAR subtypes,binds with approximately equal affinity to all the three RAR subtypes
same,Tropo-elastin Expression,"tropoelastin gene; CCD-16Lu, 1×10^-7 M, RT-PCR, triplicate, untreated control 30.90",35.50 (Elastin/GAPDH) × 10^5
same,tropoelastin gene induction (in words),"tropoelastin gene; human lung fibroblasts, compared to the control",slightly induces tropoelastin gene induction
same,number of alveoli / septation in lungs (in words),alveolar septation,the capacity of dexamethasone to prevent the expression of CRBP and RARβ mRNA and subsequent alveolar septation in developing rat lung was abrogated by ATRA
same,triglyceride levels (in words),[1],either on the high end of normal or elevated
same,[Triglyceride],[1]; normal rat 75-175 mg/dl,182 mg/dL
same,% Repair,"[2]; 0.5 mg/kg ip once daily, from 21 days post injury, 14 days",50%
same,Alveolar Area,"[2]; 0.5 mg/kg ip once daily, from 21 days post injury, 14 days, naive 1637 +/- 153, elastase + vehicle 3570 +/- 319",2607 +/- 191
same,alveolar repair (in words),"[2]; elastase-treated rats, 0.5 mg/kg ip","induces alveolar repair, reversing the alveolar destruction caused by treatment with elastase"
same,formation of new alveoli and elastic recoil (in words),emphysema,can induce formation of new alveoli and return elastic recoil to near normal
same,binding to RXR receptors (in words),RXR receptors,does not bind to the RXR receptors
